Measurements reported in BindingDB's records for patent US11945784 (Cornell University, 2024).

The molecules below were run against Serine/threonine-protein kinase/endoribonuclease IRE1 (Homo sapiens, UniProt O75460) (assay: In Vitro FRET Assay).
Chain of Serine/threonine-protein kinase/endoribonuclease IRE1 (O75460 whole entry): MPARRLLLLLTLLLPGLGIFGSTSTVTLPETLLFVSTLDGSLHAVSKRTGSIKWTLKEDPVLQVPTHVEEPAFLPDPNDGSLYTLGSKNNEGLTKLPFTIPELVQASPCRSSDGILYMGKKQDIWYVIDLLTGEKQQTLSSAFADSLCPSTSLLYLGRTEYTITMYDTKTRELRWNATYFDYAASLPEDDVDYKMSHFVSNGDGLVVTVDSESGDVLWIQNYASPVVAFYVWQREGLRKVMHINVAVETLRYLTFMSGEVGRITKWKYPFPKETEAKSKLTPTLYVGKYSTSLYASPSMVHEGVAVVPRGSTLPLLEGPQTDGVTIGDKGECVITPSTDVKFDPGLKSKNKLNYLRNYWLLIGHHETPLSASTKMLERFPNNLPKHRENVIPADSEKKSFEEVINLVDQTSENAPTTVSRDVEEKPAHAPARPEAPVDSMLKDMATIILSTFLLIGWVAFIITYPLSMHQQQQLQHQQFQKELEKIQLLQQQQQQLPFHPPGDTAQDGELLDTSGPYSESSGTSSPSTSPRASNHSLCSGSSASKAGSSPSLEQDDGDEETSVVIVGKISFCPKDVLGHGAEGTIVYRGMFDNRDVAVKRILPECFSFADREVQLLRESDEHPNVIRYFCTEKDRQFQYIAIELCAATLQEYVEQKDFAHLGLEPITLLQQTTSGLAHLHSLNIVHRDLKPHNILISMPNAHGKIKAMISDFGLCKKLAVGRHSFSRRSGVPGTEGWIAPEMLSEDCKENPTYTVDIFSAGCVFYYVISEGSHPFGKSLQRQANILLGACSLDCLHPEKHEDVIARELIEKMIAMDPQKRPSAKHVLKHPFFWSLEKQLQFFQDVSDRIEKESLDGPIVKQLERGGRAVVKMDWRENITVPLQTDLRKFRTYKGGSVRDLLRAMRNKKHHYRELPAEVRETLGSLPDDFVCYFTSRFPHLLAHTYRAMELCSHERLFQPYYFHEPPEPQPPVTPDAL
Procedure: In vitro FRET assay was performed to evaluate the ability of select compounds to inhibit IRE1, the results of which are summarized in Table 3. To perform the in vitro FRET assay, 1× complete assay buffer (CAB; […], 50 mM sodium citrate pH 7.15, 1 mM magnesium acetate, 0.02% tween 20) was used to dilute SignalChem IRE1α protein to a final concentration of 2 nM. Selected compounds were serially diluted with DMSO in a non-binding black 384-well plate for a total of 15 ul in each well. 2 ul of the serially diluted compound or DMSO control were then added to new wells containing 98 ul of 1×CAB, for a total volume of 100 ul, 10 ul of which were then transferred to wells of a new plate. 5 ul of the diluted IRE1α was then added to each well. 5 ul of a […] was then added to each well. Fluorescence was then read over 30 minutes in kinetic mode (485/515 nm).Two RNA probes were used, XBP1 wildtype (SEQ ID NO: 2) which is able to be spliced by active IRE1α or XBP1 mutant (SEQ ID NO: 3) which is unable to be spliced. Each probe contained a 5′ 6-FAM modification and a 3′ IOWA Black FQ modification.A second FRET assay was performed to assess ATP-mediated inhibition. In this case, compounds and IRE1α were prepared and combined as discussed above, with the addition of ATP up to 1 mM final concentration. This mixture was incubated at room temperature for 60 minutes and then 5 ul of 400 nM XBP1 wildtype or mutant RNA probe was added. Plates were then read over 30 minutes in kinetic mode (485/515 nm) and rate of fluorescence increase calculated for different compound dilutions to determine IC50.
`NC1CCC(Nc2ncc(/C=C/c3ccc(NS(=O)(=O)c4ccccc4Cl)nn3)cn2)CC1` (configuration not stated) [US11945784, Compound 2] was tested, and the IC50 was < 1 nM.
With `NC1CCC(Nc2ncc(/C=C/c3ccc(NS(=O)(=O)c4ccccc4Cl)c(F)c3)cn2)CC1` (configuration not stated) [US11945784, Compound 3] the IC50 was < 1 nM.
In the case of `CN(C)C1CCC(Nc2ncc(/C=C/c3ccc(NS(=O)(=O)c4ccccc4Cl)nn3)cn2)CC1` (configuration not stated) [US11945784, Compound 52], the IC50 is reported as < 1 nM.
With `COc1nc(NS(=O)(=O)c2ccccc2Cl)c(F)cc1/C=C/c1cnc(NC2CCC(N)CC2)nc1` (configuration not stated) [US11945784, Compound 54] the IC50 was < 1 nM.
For `COc1nc(NS(=O)(=O)c2cnccc2Cl)ccc1/C=C/c1cnc(NC2CCC(N(C)C)CC2)nc1` (configuration not stated) [US11945784, Compound 56], the IC50 was < 1 nM.
`COc1nc(NS(=O)(=O)c2ccccc2Cl)ccc1/C=C/c1cnc(NC2CCC(N3CCOCC3)CC2)nc1` (configuration not stated) [US11945784, Compound 57] was tested, and the IC50 was < 1 nM.
For `Cc1nc(NS(=O)(=O)c2ccccc2Cl)c(F)cc1/C=C/c1cnc(NC2CCC(N)CC2)nc1` (configuration not stated) [US11945784, Compound 58], the IC50 was < 1 nM.
For `CNC1CCC(Nc2ncc(/C=C/c3cc(F)c(NS(=O)(=O)c4ccccc4Cl)nc3OC)cn2)CC1` (configuration not stated) [US11945784, Compound 59], the IC50 was < 1 nM.
In the case of `COc1nc(NS(=O)(=O)c2ccccc2Cl)ccc1/C=C/c1cnc(NC2CCC(N3CCCCC3)CC2)nc1` (configuration not stated) [US11945784, Compound 60], the IC50 is reported as < 1 nM.
`CN(C)C1CCC(Nc2ncc(/C=C/c3ccc(NS(=O)(=O)c4ccc(F)cc4Cl)nc3)cn2)CC1` (configuration not stated) [US11945784, Compound 61] was tested, and the IC50 was < 1 nM.
In the case of `Cc1nc(NS(=O)(=O)c2cnccc2Cl)ccc1/C=C/c1cnc(NC2CCC(N(C)C)CC2)nc1` (configuration not stated) [US11945784, Compound 62], the IC50 is reported as < 1 nM.
`CN(C)C1CCC(Nc2ncc(/C=C/c3ccc(NS(=O)(=O)c4cccc(Cl)c4Cl)nc3)cn2)CC1` (configuration not stated) [US11945784, Compound 63] was tested, and the IC50 was < 1 nM.
With `COc1nc(NS(=O)(=O)c2ccccc2Cl)ccc1/C=C/c1cnc(NC2CCC(N3CCSCC3)CC2)nc1` (configuration not stated) [US11945784, Compound 64] the IC50 was < 1 nM.
With `COc1cc(NS(=O)(=O)c2cnccc2Cl)ccc1/C=C/c1cnc(NC2CCC(N(C)C)CC2)nc1` (configuration not stated) [US11945784, Compound 65] the IC50 was < 1 nM.
For `COc1c(/C=C/c2cnc(NC3CCC(N(C)C)CC3)nc2)ccc(NS(=O)(=O)c2ccccc2Cl)c1F` (configuration not stated) [US11945784, Compound 66], the IC50 was < 1 nM.
In the case of `COc1cc(NS(=O)(=O)c2ccccc2Cl)c(F)cc1/C=C/c1cnc(NC2CCC(N(C)C)CC2)nc1` (configuration not stated) [US11945784, Compound 67], the IC50 is reported as < 1 nM.
With `CN(C)C1CCC(Nc2ncc(/C=C/c3ccc(NS(=O)(=O)c4cccc(F)c4Cl)nc3)cn2)CC1` (configuration not stated) [US11945784, Compound 68] the IC50 was < 1 nM.
